Measured values published in patent publication US9476064B2, “Neuro-progenitor produced from an SCNT-derived ES cell” (H. Bion Co., Ltd., priority 2003, dated 2016).

System: nucleus-transferred oocytes
Experiment: Development of nucleus-transferred oocytes after reprogramming and chemical activation
Format: cell-based, human
Details: then 2.0 mM 6-DMAP, reprogramming time 2 hour, G1.2 then SNUnt-2, 16 oocytes
Text: Since a sperm-mediated activation, which is one of the major factors for a normal embryonic development, was absent in case of the nucleus-transferred oocyte obtained in Example 2, an artificial stimulus was needed instead. In order to determine the optimum conditions for artificial embryogenesis, therefore, nucleus-transferred oocytes were reprogrammed, activated and in vitro cultured under various conditions as shown in Tables 2 to 4.
Such nucleus-transferred oocytes were washed several times with the G1.2 medium, transferred to the G1.2 medium containing 2.0 mM 6-DMAP (Sigma Co., St. Louis, Mo., U.S.A.) and, then, cultured at 37° C., 5% CO2, 5% O2 and 90% N2 for 4 hours. After these activation steps, the nucleus-transferred oocytes were in vitro cultured under the same condition.

`C[C@H](CCC(=O)O)C[C@H](C)C[C@H](C)C(=O)/C=C(\O)[C@H](C)C[C@H](C)C/C=C/[C@@H](C)[C@@H](O)[C@@H](C)[C@@H](O)C[C@@H]1CC[C@@](C)([C@H]2CC[C@@](C)([C@@H](C)O)O2)O1` [ionomycin] was tested, and the “No. of nucleus-transferred oocytes developed to 2-cell stage” value (5 μM) was 9, the “No. of nucleus-transferred oocytes developed to blastocyst” value (5 μM) was 0 and the “No. of nucleus-transferred oocytes developed to morula” value (5 μM) was 0. The “No. of nucleus-transferred oocytes developed to 2-cell stage” value (10 μM) was 12, the “No. of nucleus-transferred oocytes developed to blastocyst” value (10 μM) was 0 and the “No. of nucleus-transferred oocytes developed to morula” value (10 μM) was 0.
